According to patent US9920339B2, “Methods, reagents and cells for biosynthesizing compounds” (INVISTA North America S.á r.l., priority 2014, dated 2018):

Tests used:
[1] = tested on: Pseudomonas syringae ω-transaminase (SEQ ID NO: 10); experiment: ω-transaminase enzyme activity assay, amine substrate plus pyruvate to L-alanine (cell free extract); format: biochemical; settings: for accepted as substrate as confirmed against the empty vector control: reverse direction, 10 mM substrate, 10 mM pyruvate, 100 μM pyridoxyl 5′ phosphate, pH 7.5, 25° C., 4 h, L-alanine by RP-HPLC; for accepted as substrate, concluded from the reversibility of the ω-transaminase activity: forward (amine-forming) direction, inferred from the reverse assay
Method: (§1) A nucleotide sequence encoding an N-terminal His-tag was added to the Chromobacterium violaceum, Pseudomonas aeruginosa, Pseudomonas syringae, Rhodobacter sphaeroide, Escherichia coli and Vibrio fluvialis genes encoding the ω-transaminases of SEQ ID NOs: 8-13, respectively (see FIG. 10) such that N-terminal HIS tagged ω-transaminases could be produced. The modified genes were cloned into a pET21a expression vector under the T7 promoter. Each expression vector was transformed into a BL21[DE3] E. coli host. Each resulting recombinant E. coli strain were cultivated at 37° C. in a 250 mL shake flask culture containing 50 mL LB media and antibiotic selection pressure, with shaking at 230 rpm. Each culture was induced overnight at 16° C. using 1 mM IPTG.
(§2) The pellet from each induced shake flask culture was harvested via centrifugation. Each pellet was resuspended and lysed via sonication. The cell debris was separated from the supernatant via centrifugation and the cell free extract was used immediately in enzyme activity assays.
(§3) Enzyme activity assays in the reverse direction (i.e., 5-aminopentanol to 5-oxopentanol) were performed in a buffer composed of a final concentration of 50 mM HEPES buffer (pH=7.5), 10 mM 5-aminopentanol, 10 mM pyruvate, and 100 μM pyridoxyl 5′ phosphate. Each enzyme activity assay reaction was initiated by adding cell free extract of the ω-transaminase gene product or the empty vector control to the assay buffer containing the 5-aminopentanol and then incubated at 25° C. for 4 h, with shaking at 250 rpm. The formation of L-alanine was quantified via RP-HPLC.
as §1, with “and” for “Rhodobacter sphaeroide,”, “coli” for “coli and Vibrio fluvialis”, “8-10 and 12,” for “8-13,”
as §3, with “cadaverine” for “5-aminopentanol”, “5-aminopentanal)” for “5-oxopentanol)”, “cadaverine,” for “5-aminopentanol,”
(§4) The activity of the N-terminal His-tagged ω-transaminases of SEQ ID NOs: 8, 10-13 (see Example 3, and FIG. 10) for converting N5-acetyl-1,5-diaminopentane to N5-acetyl-5-aminopentanal was assayed using a buffer composed of a final concentration of 50 mM HEPES buffer (pH=7.5), 10 mM N5-acetyl-1,5-diaminopentane, 10 mM pyruvate and 100 μM pyridoxyl 5′ phosphate. Each enzyme activity assay reaction was initiated by adding a cell free extract of the ω-transaminase or the empty vector control to the assay buffer containing the N5-acetyl-1,5-diaminopentane then incubated at 25° C. for 4 h, with shaking at 250 rpm. The formation of L-alanine was quantified via RP-HPLC.
(§5) The activity of the N-terminal His-tagged ω-transaminases of SEQ ID NOs: 8-13 (see Example 3, and FIG. 10) for converting 1-aminopentane to pentanal was assayed using a buffer composed of a final concentration of 50 mM HEPES buffer (pH=7.5), 10 mM 1-aminopentane, 10 mM pyruvate and 100 μM pyridoxyl 5′ phosphate. […]

[2] = molecular target: T1, Escherichia coli ω-transaminase (SEQ ID NO: 12) (Escherichia coli, UniProt P42588); experiment: as above; format: biochemical; settings: for accepted as substrate as confirmed against the empty vector control: reverse direction, 10 mM substrate, 10 mM pyruvate, 100 μM pyridoxyl 5′ phosphate, pH 7.5, 25° C., 4 h, L-alanine by RP-HPLC; for accepted as substrate, concluded from the reversibility of the ω-transaminase activity: forward (amine-forming) direction, inferred from the reverse assay
T1 construct: His-tag (N); made in house; host or cells: E. coli BL21[DE3], pET21a
T1 sequence (P42588 whole entry): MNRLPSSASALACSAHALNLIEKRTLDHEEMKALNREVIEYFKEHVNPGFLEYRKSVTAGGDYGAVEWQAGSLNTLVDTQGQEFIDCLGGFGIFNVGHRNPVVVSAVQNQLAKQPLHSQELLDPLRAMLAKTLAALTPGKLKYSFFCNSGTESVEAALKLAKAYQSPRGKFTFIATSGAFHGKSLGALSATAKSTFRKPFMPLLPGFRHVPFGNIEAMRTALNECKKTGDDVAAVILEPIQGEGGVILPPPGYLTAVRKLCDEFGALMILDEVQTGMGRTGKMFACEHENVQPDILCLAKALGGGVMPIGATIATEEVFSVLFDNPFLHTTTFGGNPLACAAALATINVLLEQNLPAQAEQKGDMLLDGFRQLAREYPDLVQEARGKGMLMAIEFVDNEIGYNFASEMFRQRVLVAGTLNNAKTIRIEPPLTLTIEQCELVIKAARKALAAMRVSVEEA
Method: as §1, §2, §3
as §1, with “and” for “Rhodobacter sphaeroide,”, “coli” for “coli and Vibrio fluvialis”, “8-10 and 12,” for “8-13,”
as §3, with “cadaverine” for “5-aminopentanol”, “5-aminopentanal)” for “5-oxopentanol)”, “cadaverine,” for “5-aminopentanol,”
as §4, §5

[3] = tested on: Pseudomonas aeruginosa ω-transaminase (SEQ ID NO: 9); experiment: as above; format: biochemical; settings: for accepted as substrate as confirmed against the empty vector control: reverse direction, 10 mM substrate, 10 mM pyruvate, 100 μM pyridoxyl 5′ phosphate, pH 7.5, 25° C., 4 h, L-alanine by RP-HPLC; for accepted as substrate, concluded from the reversibility of the ω-transaminase activity: forward (amine-forming) direction, inferred from the reverse assay
Method: as §1, §2, §3
as §1, with “and” for “Rhodobacter sphaeroide,”, “coli” for “coli and Vibrio fluvialis”, “8-10 and 12,” for “8-13,”
as §3, with “cadaverine” for “5-aminopentanol”, “5-aminopentanal)” for “5-oxopentanol)”, “cadaverine,” for “5-aminopentanol,”
as §4, with “8-13” for “8, 10-13”, “1-aminopentane” for “N5-acetyl-1,5-diaminopentane”, “pentanal” for “N5-acetyl-5-aminopentanal”, “1-aminopentane,” for “N5-acetyl-1,5-diaminopentane,”
as §5, with “1-aminoheptane” for “1-aminopentane”, “heptanal” for “pentanal”, “1-aminoheptane,” for “1-aminopentane,”

[4] = tested on: Rhodobacter sphaeroides ω-transaminase (SEQ ID NO: 11); experiment: as above; format: biochemical; settings: for accepted as substrate as confirmed against the empty vector control: reverse direction, 10 mM substrate, 10 mM pyruvate, 100 μM pyridoxyl 5′ phosphate, pH 7.5, 25° C., 4 h, L-alanine by RP-HPLC; for accepted as substrate, concluded from the reversibility of the ω-transaminase activity: forward (amine-forming) direction, inferred from the reverse assay
Method: as §1, §2, §3, §4
as §4, with “8-13” for “8, 10-13”, “1-aminopentane” for “N5-acetyl-1,5-diaminopentane”, “pentanal” for “N5-acetyl-5-aminopentanal”, “1-aminopentane,” for “N5-acetyl-1,5-diaminopentane,”
as §4, with “8-13” for “8, 10-13”, “1-aminoheptane” for “N5-acetyl-1,5-diaminopentane”, “heptanal” for “N5-acetyl-5-aminopentanal”, “1-aminoheptane,” for “N5-acetyl-1,5-diaminopentane,”

[5] = tested on: Vibrio fluvialis ω-transaminase (SEQ ID NO: 13); experiment: as above; format: biochemical; settings: for accepted as substrate as confirmed against the empty vector control: reverse direction, 10 mM substrate, 10 mM pyruvate, 100 μM pyridoxyl 5′ phosphate, pH 7.5, 25° C., 4 h, L-alanine by RP-HPLC; for accepted as substrate, concluded from the reversibility of the ω-transaminase activity: forward (amine-forming) direction, inferred from the reverse assay
Method: as §1, §2, §3, §4
as §4, with “8-13” for “8, 10-13”, “1-aminopentane” for “N5-acetyl-1,5-diaminopentane”, “pentanal” for “N5-acetyl-5-aminopentanal”, “1-aminopentane,” for “N5-acetyl-1,5-diaminopentane,”
as §4, with “8-13” for “8, 10-13”, “1-aminoheptane” for “N5-acetyl-1,5-diaminopentane”, “heptanal” for “N5-acetyl-5-aminopentanal”, “1-aminoheptane,” for “N5-acetyl-1,5-diaminopentane,”

[6] = tested on: Chromobacterium violaceum ω-transaminase (SEQ ID NO: 8); experiment: as above; format: biochemical; settings: reverse direction, 10 mM substrate, 10 mM pyruvate, 100 μM pyridoxyl 5′ phosphate, pH 7.5, 25° C., 4 h, L-alanine by RP-HPLC
Method: A nucleotide sequence encoding an N-terminal His-tag was added to the genes from Chromobacterium violaceum and Rhodobacter sphaeroides encoding the ω-transaminases of SEQ ID NOs: 8 and 10 respectively (see FIG. 10) such that N-terminal HIS tagged ω-transaminases could be produced. Each of the resulting modified genes was cloned into a pET21a expression vector under control of the T7 promoter and each expression vector was transformed into a BL21[DE3] E. coli host. The resulting recombinant E. coli strains were cultivated at 37° C. in a 250 mL shake flask culture containing 50 mL LB media and antibiotic selection pressure, with shaking at 230 rpm. Each culture was induced overnight at 16° C. using 1 mM IPTG.
as §2
as §3, with “5-aminopentanoate” for “5-aminopentanol”, “glutarate semialdehyde)” for “5-oxopentanol)”, “5-aminopentanoate,” for “5-aminopentanol,”, “pyruvate” for “pyruvate,”, “and” for “and then”, “L-alanine from pyruvate” for “L-alanine”
as §1, §3
as §1, with “and” for “Rhodobacter sphaeroide,”, “coli” for “coli and Vibrio fluvialis”, “8-10 and 12,” for “8-13,”
Enzyme activity assays in the reverse direction (i.e., cadaverine to 5-aminopentanal) were performed in a buffer composed of a final concentration of 50 mM HEPES buffer (pH=7.5), 10 mM cadaverine, 10 mM pyruvate, and 100 μM pyridoxyl 5′ phosphate. […]

[7] = tested on: Chromobacterium violaceum ω-transaminase (SEQ ID NO: 8); experiment: as above; format: biochemical; settings: forward (amine-forming) direction, inferred from the reverse assay
[8] = tested on: acetylputrescine deacetylase from Micrococcus luteus K-11; settings: Suzuki et al., 1986; cited from earlier work
gene product of ygjG = gene product of ygjG (Escherichia coli, UniProt P42588); settings: Samsonova et al., 2003; cited from earlier work
Chain of gene product of ygjG (P42588 whole entry): as above

CCCCCCCN [1-aminoheptane]
accepted: accepted as substrate as confirmed against the empty vector control [1] | accepted as substrate as confirmed against the empty vector control [2] | accepted as substrate as confirmed against the empty vector control [3] | accepted as substrate as confirmed against the empty vector control [4] | accepted as substrate as confirmed against the empty vector control [5] | accepted as substrate as confirmed against the empty vector control [6]

CCCCCN [1-aminopentane]
accepted: accepted as substrate as confirmed against the empty vector control [1] | accepted as substrate as confirmed against the empty vector control [2] | accepted as substrate as confirmed against the empty vector control [3] | accepted as substrate as confirmed against the empty vector control [4] | accepted as substrate as confirmed against the empty vector control [5] | accepted as substrate as confirmed against the empty vector control [6]

NCCCCC=O [5-aminopentanal]
accept: accepted as substrate, concluded from the reversibility of the ω-transaminase activity [1] | accepted as substrate, concluded from the reversibility of the ω-transaminase activity [2] | accepted as substrate, concluded from the reversibility of the ω-transaminase activity [3] | accepted as substrate, concluded from the reversibility of the ω-transaminase activity [7]

NCCCCC(=O)O [5-aminopentanoate]
accepted: accepted as substrate as confirmed against the empty vector control [6]

NCCCCCO [5-aminopentanol]
accepted: accepted as substrate as confirmed against the empty vector control [1] | accepted as substrate as confirmed against the empty vector control [2] | accepted as substrate as confirmed against the empty vector control [3] | accepted as substrate as confirmed against the empty vector control [4] | accepted as substrate as confirmed against the empty vector control [5] | accepted as substrate as confirmed against the empty vector control [6]

O=CCCCCO [5-oxopentanol]
accept: accepted as substrate, concluded from the reversibility of the ω-transaminase activity [1] | accepted as substrate, concluded from the reversibility of the ω-transaminase activity [2] | accepted as substrate, concluded from the reversibility of the ω-transaminase activity [3] | accepted as substrate, concluded from the reversibility of the ω-transaminase activity [4] | accepted as substrate, concluded from the reversibility of the ω-transaminase activity [5] | accepted as substrate, concluded from the reversibility of the ω-transaminase activity [7]

CC(=O)NCCCCCN [N5-acetyl-1,5-diaminopentane]
accepted: accepted as substrate as confirmed against the empty vector control [1] | accepted as substrate as confirmed against the empty vector control [2] | accepted as substrate as confirmed against the empty vector control [4] | accepted as substrate as confirmed against the empty vector control [5] | accepted as substrate as confirmed against the empty vector control [6]

CC(=O)NCCCCC=O [N5-acetyl-5-aminopentanal]
accept: accepted as substrate, concluded from the reversibility of the ω-transaminase activity [1] | accepted as substrate, concluded from the reversibility of the ω-transaminase activity [2] | accepted as substrate, concluded from the reversibility of the ω-transaminase activity [4] | accepted as substrate, concluded from the reversibility of the ω-transaminase activity [5] | accepted as substrate, concluded from the reversibility of the ω-transaminase activity [7]

CC(=O)NCCCCNCCCN [N^8-acetylspermidine]
accepts: accepted as substrate [8]

CC(=O)NCCCCCN [acetylcadaverine]
accepts: accepted as substrate [8]

CC(=O)NCCCCN [acetylputrescine]
accepts: accepted as substrate [8]

NCCCCN [putrescine]
accepts: accepted as diamine substrate (gene product of ygjG)

NCCCCNCCCN [spermidine]
accepts: accepted as diamine substrate (gene product of ygjG)
